# Reference: patent US5141931A, “5-Quinolinylpyridinones, cardiotonic compositions and methods” (Sterling Winthrop Inc., priority 1991, dated 1992)
# pIC50: −log10 of the molar value.
# Assays:
# mean arterial pressure = assay: In vivo Vasodilation in the Rat; parameters: species or system normotensive male Sprague-Dawley rats; conditions: 0.4 mg/kg, orally by gavage
# Method: Procedure 2--In vivo Vasodilation in the Rat
# Normotensive male Sprague-Dawley rats of 325-425 g were anesthetized with sodium pentobarbital and an arterial catheter was placed in the abdominal aorta via the femoral artery. The catheter was tunneled subcutaneously, exteriorized at the nape of the neck, filled with heparinized saline and sealed with a stainless steel plug. The wounds were sutured and a suspension of penicillin G benzathine and penicillin G procaine was administered subcutaneously. All animals were allowed at least two days recovery prior to testing.
# Rats were fasted 17 hours then placed into individual plexiglass boxes. The arterial catheter was connected to a Statham pressure transducer, positioned at the heart level, and the arterial pressure signal was recorded on a polygraph. The animals remained undisturbed for at least one hour to adapt to the testing environment. After the adaptation period, three baseline arterial pressure and heart rate measurements were taken at 15-minute intervals prior to the administration of the test drug. […] Arterial pressure and heart rate were measured at 15-minute intervals for the first hour and 30-minute intervals for the next four hours following the administration of drugs.
# The data were analyzed by one-way analysis of variance for repeated measures. […]
# [1] = target: Phosphodiesterase III (PDE III); assay: Phosphodiesterase III Inhibition; format: biochemical, mongrel dogs (thoracic aorta); conditions: dog thoracic aorta PDE III; substrate concentration 1 μM; triplicate
# Method: Procedure 1 --Phosphodiesterase III Inhibition
# Phosphodiesterase III (PDE III) was obtained by a slight modification of the methods of Thompson et al. [Advances in Cyclic Nucleotide Research vol. […] Thoracic aorta from mongrel dogs was minced with fine scissors and homogenized in 10 volumes of a buffer containing 10 mM tris acetate, pH 7.5, 2 mM magnesium chloride, 1mM dithiothreitol and 2000 units per mL of aprotinin. This and subsequent procedures were performed at 0-4°. The tissue was homogenized, the homogenate was sonicated and the resultant homogenate was centrifuged at 48,000 g for 30 minutes. The resulting supernatant fraction was applied to a diethylaminoethyl ether (DEAE) cellulose column that had been equilibrated with 35 or 70 mM sodium acetate containing 1 mM dithiothreitol at pH 6.5. After application of the sample, the column was washed with 2-3 bed volumes of the equilibration buffer and the PDE isozyme was eluted from the column using a continuous sodium acetate gradient to 1 molar. Fractions of approximately 5 mL were collected and assayed for cAMP and cGMP PDE activity at substrate concentrations of 1 μM. Appropriate fractions corresponding to peak three were pooled and dialyzed against 70 mM sodium acetate, 0.5 mM dithiothreitol for at least 20 hours.
SMILES,area under the curve for reduction of mean arterial pressure (mean arterial pressure; conscious normotensive rats),"statistical significance of reduction of mean arterial pressure (mean arterial pressure; Student Newman-Keuls test, probability of less than 5%, to the end of the test at six hours)",pIC50 [1]
"Cc1[nH]c(=O)c(C#N)cc1-c1ccc2ncccc2c1 [Example 3, 1,2-Dihydro-6-methyl-2-oxo-5-(6-quinolinyl)-3-pyridinecarbonitrile]",75%,statistical significance at all times to the end of the test at six hours,7.24
"Cc1[nH]c(=O)c(C#N)cc1-c1ccncc1 [milrinone, reference compound]",,,6.30
